Source: BindingDB's records for doi:10.1007/s00259-006-0324-y (Columbia University, 2007)
pKi: −log10 of the molar value.

Experiments:
[1] = biological target: Voltage-dependent L-type calcium channel subunit beta-2 (Bos taurus, UniProt Q9MZL5)
Histamine receptor H3 = Histamine receptor H3 (Bos taurus, UniProt F1MML8)
[2] = biological target: 5-hydroxytryptamine receptor 5A (Bos mutus, UniProt L8HQU1)
[3] = biological target: 5-hydroxytryptamine receptor 1B (Bos mutus, UniProt L8IGV0)
Neuromedin-K receptor = Neuromedin-K receptor (Bos mutus, UniProt L8IYF9)
[4] = biological target: 5-hydroxytryptamine receptor 2B (Bos taurus, UniProt Q8MI09)
[5] = biological target: 4-aminobutyrate aminotransferase, mitochondrial (Bos taurus, UniProt Q9BGI0)
Sequence of 4-aminobutyrate aminotransferase, mitochondrial (Q9BGI0 whole entry): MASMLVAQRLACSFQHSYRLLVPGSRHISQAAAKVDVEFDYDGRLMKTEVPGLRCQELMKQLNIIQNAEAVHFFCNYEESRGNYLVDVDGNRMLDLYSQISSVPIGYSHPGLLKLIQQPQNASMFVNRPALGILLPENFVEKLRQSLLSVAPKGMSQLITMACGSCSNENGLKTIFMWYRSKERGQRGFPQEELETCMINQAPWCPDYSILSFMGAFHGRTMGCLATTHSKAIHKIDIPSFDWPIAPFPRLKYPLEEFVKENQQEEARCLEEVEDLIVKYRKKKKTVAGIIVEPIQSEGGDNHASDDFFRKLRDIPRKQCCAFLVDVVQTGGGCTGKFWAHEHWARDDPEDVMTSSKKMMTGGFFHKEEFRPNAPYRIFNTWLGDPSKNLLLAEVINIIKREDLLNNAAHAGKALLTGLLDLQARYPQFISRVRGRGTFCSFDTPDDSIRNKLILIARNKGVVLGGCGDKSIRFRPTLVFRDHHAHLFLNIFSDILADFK

Glutamate receptor [6] = biological target: Glutamate receptor (Bos taurus, UniProt A4FV91)
Beta-arrestin-1 = Beta-arrestin-1 (Bos taurus, UniProt P17870)
[7] = biological target: 5-hydroxytryptamine receptor 6 (Bos mutus, UniProt L8HST4)
Sequence of 5-hydroxytryptamine receptor 6 (L8HST4 whole entry): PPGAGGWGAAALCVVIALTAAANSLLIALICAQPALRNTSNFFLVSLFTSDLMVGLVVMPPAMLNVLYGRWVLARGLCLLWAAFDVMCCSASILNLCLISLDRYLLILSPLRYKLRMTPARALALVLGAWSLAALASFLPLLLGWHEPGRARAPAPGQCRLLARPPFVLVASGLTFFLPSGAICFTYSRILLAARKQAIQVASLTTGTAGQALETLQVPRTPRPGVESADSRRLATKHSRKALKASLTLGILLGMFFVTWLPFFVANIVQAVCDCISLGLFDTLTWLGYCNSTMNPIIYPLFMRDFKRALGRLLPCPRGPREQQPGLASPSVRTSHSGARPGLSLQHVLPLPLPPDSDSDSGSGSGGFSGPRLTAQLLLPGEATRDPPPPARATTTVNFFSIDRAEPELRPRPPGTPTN

Vasopressin V1a receptor = Vasopressin V1a receptor (Bos taurus, UniProt A2VDS9)
Substance-K receptor = Substance-K receptor (Bos taurus, UniProt P05363)
[8] = biological target: 5-hydroxytryptamine receptor 2A (Bos taurus, UniProt Q75Z89)
[9] = biological target: Solute carrier family 22 member 1 (Bos taurus, UniProt A7MBE0)
Nischarin = Nischarin (Bos mutus, UniProt L8IEU8)
[10] = biological target: Beta-2 adrenergic receptor (Bos taurus, UniProt Q28044)
Sequence of Beta-2 adrenergic receptor (Q28044 whole entry): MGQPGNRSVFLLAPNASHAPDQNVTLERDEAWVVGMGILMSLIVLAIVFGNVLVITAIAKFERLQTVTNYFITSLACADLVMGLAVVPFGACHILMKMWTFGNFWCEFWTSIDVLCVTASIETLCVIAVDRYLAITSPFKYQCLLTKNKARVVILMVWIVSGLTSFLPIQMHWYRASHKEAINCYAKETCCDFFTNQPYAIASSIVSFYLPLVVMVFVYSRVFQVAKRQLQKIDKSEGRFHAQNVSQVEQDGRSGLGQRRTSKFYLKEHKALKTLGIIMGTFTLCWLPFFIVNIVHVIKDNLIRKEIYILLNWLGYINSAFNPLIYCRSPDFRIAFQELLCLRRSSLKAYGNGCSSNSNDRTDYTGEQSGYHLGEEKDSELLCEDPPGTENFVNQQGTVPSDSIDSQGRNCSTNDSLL

[11] = biological target: 5-hydroxytryptamine 1D receptor (Bos taurus, UniProt Q8MI13)
Sequence of 5-hydroxytryptamine 1D receptor (Q8MI13 whole entry): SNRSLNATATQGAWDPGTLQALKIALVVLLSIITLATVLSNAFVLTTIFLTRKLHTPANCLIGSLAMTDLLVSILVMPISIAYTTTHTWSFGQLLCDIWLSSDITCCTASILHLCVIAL

Thromboxane-A synthase = Thromboxane-A synthase (Bos taurus, UniProt Q2KIG5)
Dopamine receptor D4 = Dopamine receptor D4 (Bos taurus, UniProt Q8WNT0)
Sequence of Dopamine receptor D4 (Q8WNT0 whole entry): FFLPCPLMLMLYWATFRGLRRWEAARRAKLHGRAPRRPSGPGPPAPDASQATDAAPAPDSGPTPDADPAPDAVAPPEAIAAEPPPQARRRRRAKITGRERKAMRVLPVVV

Cannabinoid receptor 2 = Cannabinoid receptor 2 (Bos taurus, UniProt E1B9P2)
Protein lifeguard 1 = Protein lifeguard 1 (Bos taurus, UniProt Q32L53)
Sequence of Protein lifeguard 1 (Q32L53 whole entry): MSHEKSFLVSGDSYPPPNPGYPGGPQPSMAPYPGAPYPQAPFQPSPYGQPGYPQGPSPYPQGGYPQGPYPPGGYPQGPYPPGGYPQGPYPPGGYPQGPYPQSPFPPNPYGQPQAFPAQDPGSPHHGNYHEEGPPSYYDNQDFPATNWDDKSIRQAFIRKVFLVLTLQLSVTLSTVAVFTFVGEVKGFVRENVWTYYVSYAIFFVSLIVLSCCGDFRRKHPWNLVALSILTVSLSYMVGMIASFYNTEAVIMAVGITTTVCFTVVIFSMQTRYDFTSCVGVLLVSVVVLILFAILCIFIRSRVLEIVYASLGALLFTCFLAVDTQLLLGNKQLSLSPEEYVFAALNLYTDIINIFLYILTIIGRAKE

[12] = biological target: Sodium-dependent noradrenaline transporter (Bos taurus, UniProt P51143)
Sequence of Sodium-dependent noradrenaline transporter (P51143 whole entry): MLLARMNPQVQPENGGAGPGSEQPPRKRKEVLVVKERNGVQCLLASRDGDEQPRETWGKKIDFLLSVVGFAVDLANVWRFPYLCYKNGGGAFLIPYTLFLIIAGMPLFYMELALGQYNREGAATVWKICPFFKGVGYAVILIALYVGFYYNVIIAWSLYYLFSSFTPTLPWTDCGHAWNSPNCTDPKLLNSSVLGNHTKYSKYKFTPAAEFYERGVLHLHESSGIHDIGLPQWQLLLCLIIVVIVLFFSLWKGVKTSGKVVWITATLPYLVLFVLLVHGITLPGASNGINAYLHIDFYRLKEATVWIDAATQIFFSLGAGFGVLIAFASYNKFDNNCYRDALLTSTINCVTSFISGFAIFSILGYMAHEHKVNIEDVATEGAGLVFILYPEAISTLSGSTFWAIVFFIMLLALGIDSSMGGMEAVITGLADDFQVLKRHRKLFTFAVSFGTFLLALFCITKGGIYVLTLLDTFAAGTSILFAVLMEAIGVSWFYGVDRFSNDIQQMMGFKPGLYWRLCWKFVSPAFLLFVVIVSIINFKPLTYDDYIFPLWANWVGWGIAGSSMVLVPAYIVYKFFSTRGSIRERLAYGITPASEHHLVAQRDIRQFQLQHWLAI

[13] = biological target: 5-hydroxytryptamine receptor 3A (Bos taurus, UniProt F1N4Y2)
[14] = biological target: Potassium voltage-gated channel subfamily H member 2 (Bos taurus, UniProt A5PKI1)
[15] = biological target: Multidrug resistance protein 1 (Bos taurus, UniProt Q65A17)
Sequence of Multidrug resistance protein 1 (Q65A17 whole entry): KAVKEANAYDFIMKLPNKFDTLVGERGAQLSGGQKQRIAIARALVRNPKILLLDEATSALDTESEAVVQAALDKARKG

Vasopressin V1b receptor = Vasopressin V1b receptor (Bos taurus, UniProt F1ME85)
Histamine H1 receptor = Histamine H1 receptor (Bos taurus, UniProt A5D795)
[16] = biological target: Sodium-dependent dopamine transporter (Bos taurus, UniProt P27922)
D(1A) dopamine receptor = D(1A) dopamine receptor (Bos taurus, UniProt Q95136)
[17] = biological target: Gamma-aminobutyric acid receptor subunit alpha-1 (Bos taurus, UniProt P08219)
Sequence of Gamma-aminobutyric acid receptor subunit alpha-1 (P08219 whole entry): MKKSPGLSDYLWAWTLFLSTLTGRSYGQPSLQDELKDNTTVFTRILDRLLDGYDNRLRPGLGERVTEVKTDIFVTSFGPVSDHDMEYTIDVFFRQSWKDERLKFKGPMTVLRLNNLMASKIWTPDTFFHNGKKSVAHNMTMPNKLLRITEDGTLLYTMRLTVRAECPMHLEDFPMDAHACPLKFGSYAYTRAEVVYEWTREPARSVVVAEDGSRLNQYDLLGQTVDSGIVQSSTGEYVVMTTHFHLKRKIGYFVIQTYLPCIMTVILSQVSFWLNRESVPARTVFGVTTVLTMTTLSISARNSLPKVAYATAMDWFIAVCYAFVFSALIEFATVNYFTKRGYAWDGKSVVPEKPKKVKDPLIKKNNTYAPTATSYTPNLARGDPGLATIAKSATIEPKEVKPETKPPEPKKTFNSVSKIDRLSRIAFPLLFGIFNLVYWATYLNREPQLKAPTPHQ

Vasopressin V2 receptor = Vasopressin V2 receptor (Bos taurus, UniProt P48044)
[18] = biological target: Muscarinic acetylcholine receptor M2 (Bos taurus, UniProt P41985)
Sequence of Muscarinic acetylcholine receptor M2 (P41985 whole entry): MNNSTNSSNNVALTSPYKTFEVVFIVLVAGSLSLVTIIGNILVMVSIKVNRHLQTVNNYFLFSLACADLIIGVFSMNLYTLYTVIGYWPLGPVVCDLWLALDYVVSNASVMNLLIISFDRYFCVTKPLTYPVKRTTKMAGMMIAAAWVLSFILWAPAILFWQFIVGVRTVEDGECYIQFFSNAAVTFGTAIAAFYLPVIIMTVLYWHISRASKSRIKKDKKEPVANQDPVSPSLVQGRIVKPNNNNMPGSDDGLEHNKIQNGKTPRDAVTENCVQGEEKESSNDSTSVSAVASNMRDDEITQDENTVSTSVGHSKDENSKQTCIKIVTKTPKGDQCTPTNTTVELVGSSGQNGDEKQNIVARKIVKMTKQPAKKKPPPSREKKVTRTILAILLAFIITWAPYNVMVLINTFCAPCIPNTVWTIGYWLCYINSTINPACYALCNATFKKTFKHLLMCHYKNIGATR

Beta-arrestin-2 = Beta-arrestin-2 (Bos taurus, UniProt P32120)
[19] = biological target: Kappa-type opioid receptor (Bos taurus, UniProt Q2KIP6)
Histamine H2 receptor = Histamine H2 receptor (Bos mutus, UniProt L8IRW0)
Sequence of Histamine H2 receptor (L8IRW0 whole entry): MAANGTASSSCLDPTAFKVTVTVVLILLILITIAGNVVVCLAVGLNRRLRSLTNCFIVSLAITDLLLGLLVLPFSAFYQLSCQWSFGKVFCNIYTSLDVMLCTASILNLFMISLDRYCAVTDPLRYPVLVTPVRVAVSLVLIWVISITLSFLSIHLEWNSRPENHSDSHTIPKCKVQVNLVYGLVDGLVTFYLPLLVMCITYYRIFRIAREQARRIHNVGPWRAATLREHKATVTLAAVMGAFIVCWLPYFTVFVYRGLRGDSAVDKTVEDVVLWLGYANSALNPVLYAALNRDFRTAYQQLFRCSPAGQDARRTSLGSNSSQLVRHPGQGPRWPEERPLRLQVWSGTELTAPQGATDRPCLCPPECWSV

[20] = biological target: Vesicle amine transport protein 1 homolog (T. californica)-like (Bos taurus, UniProt Q29RL6)
Glutamate receptor [21] = biological target: Glutamate receptor (Bos taurus, UniProt E1BGZ0)
D(2) dopamine receptor = D(2) dopamine receptor (Bos taurus, UniProt P20288)
[22] = biological target: 5-hydroxytryptamine receptor 7 (Bos mutus, UniProt L8II28)
Mu-type opioid receptor = Mu-type opioid receptor (Bos taurus, UniProt P79350)
Sequence of Mu-type opioid receptor (P79350 whole entry): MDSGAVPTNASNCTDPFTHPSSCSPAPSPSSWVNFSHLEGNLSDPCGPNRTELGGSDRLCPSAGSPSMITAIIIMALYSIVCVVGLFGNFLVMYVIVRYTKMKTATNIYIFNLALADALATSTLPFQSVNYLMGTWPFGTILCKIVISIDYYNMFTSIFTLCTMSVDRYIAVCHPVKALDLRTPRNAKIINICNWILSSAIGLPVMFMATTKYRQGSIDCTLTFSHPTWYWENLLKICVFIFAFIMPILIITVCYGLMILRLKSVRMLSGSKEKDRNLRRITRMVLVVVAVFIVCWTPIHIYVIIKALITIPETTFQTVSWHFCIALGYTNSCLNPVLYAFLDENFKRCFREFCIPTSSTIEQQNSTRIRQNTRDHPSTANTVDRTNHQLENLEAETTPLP

Sequence of Voltage-dependent L-type calcium channel subunit beta-2 (Q9MZL5 whole entry): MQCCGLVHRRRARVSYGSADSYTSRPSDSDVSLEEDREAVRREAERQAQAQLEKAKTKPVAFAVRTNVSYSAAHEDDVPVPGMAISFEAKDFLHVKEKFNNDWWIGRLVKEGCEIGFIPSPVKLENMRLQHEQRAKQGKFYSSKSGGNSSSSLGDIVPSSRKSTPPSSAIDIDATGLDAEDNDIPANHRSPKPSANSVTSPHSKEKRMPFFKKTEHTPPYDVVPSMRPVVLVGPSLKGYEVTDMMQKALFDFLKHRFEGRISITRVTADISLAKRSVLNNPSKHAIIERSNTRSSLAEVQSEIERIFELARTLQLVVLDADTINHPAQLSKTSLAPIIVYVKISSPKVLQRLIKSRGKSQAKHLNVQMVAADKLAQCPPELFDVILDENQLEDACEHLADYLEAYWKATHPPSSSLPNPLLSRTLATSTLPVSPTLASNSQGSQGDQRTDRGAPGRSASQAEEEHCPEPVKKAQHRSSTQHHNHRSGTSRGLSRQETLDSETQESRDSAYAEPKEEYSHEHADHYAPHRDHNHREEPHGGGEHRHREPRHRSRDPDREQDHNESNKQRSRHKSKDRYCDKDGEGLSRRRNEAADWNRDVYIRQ

Compound: COc1ccccc1N1CCN(CCCCn2ncc(=O)n(C)c2=O)CC1 [NSC_11603174]
- pKi [1]: < 5.00
- pKi (Histamine receptor H3): < 5.00
- pKi [2]: < 5.00
- pKi [3]: 6.19
- pKi (Neuromedin-K receptor): < 5.00
- pKi [4]: 7.13
- pKi [5]: < 5.00
- pKi (Glutamate receptor [6]): < 5.00
- pKi (Beta-arrestin-1): < 5.00
- pKi [7]: < 5.00
- pKi (Vasopressin V1a receptor): < 5.00
- pKi (Substance-K receptor): < 5.00
- pKi [8]: 5.30
- pKi [9]: 8.17
- pKi (Nischarin): < 5.00
- pKi [10]: < 5.00
- pKi [11]: 7.05
- pKi (Thromboxane-A synthase): < 5.00
- pKi (Dopamine receptor D4): 7.66
- pKi (Cannabinoid receptor 2): < 5.00
- pKi (Protein lifeguard 1): < 5.00
- pKi [12]: < 5.00
- pKi [13]: < 5.00
- pKi [14]: < 5.00
- pKi [15]: < 5.00
- pKi (Vasopressin V1b receptor): < 5.00
- pKi (Histamine H1 receptor): 5.99
- pKi [16]: < 5.00
- pKi (D(1A) dopamine receptor): < 5.00
- pKi [17]: < 5.00
- pKi (Vasopressin V2 receptor): < 5.00
- pKi [18]: < 5.00
- pKi (Beta-arrestin-2): < 5.00
- pKi [19]: < 5.00
- pKi (Histamine H2 receptor): 5.67
- pKi [20]: < 5.00
- pKi (Glutamate receptor [21]): < 5.00
- pKi (D(2) dopamine receptor): < 5.00
- pKi [22]: 7.89
- pKi (Mu-type opioid receptor): < 5.00
